Experiments:
[1] = test system: HIV-1 subtype CRF02_A/G isolate carrying a G118R substitution in the IN gene; design: method as in PMID 24710029; conditions: HIV-1 subtype CRF02_A/G isolate carrying G118R in the IN gene; cited from earlier work
[2] = test system: HIV-1 subtype B (clone pNL4-3) carrying G118R; design: method as in PMID 24710029; conditions: cited from earlier work
[3] = target: INA (consensus integrase of HIV-1 subtype A strain FSU-A), wild type (Human immunodeficiency virus type 1 group M subtype A, UniProt P24740, S1259P); format: biochemical
INB G118R/E138K = target: T1, INB G118R/E138K (Human immunodeficiency virus type 1 group M subtype B, UniProt P04585, E1285K/G1265R); assay: Inhibition of homologous strand transfer reaction, INB G118R/E138K; format: biochemical, HIV-1 subtype B strain HXB-2
T1 construct: The viral enzyme integrase (IN), which catalyzes the integration; His6 (N); made in house; host or cells: Escherichia coli Rosetta (DE3), pET-15b

INB = test system: INB; design: method as in PMID 23075516; conditions: literature value for INB; cited from earlier work
INB E138K = target: T2, INB E138K (Human immunodeficiency virus type 1 group M subtype B, UniProt P04585, E1285K); assay: Inhibition of homologous strand transfer reaction, INB E138K; format: biochemical, HIV-1 subtype B strain HXB-2
T2 construct: The viral enzyme integrase (IN), which catalyzes the integration; His6 (N); made in house; host or cells: Escherichia coli Rosetta (DE3), pET-15b

INA E138K = INA E138K (Human immunodeficiency virus type 1 group M subtype A, UniProt P24740, E1278K/S1259P); format: biochemical, HIV-1 subtype A strain FSU-A
INA G118R/E138K = INA G118R/E138K (Human immunodeficiency virus type 1 group M subtype A, UniProt P24740, E1278K/G1258R/S1259P); format: biochemical, HIV-1 subtype A strain FSU-A
INB Q148K = target: T3, INB Q148K (Human immunodeficiency virus type 1 group M subtype B, UniProt P04585, Q1295K); assay: Inhibition of homologous strand transfer reaction, INB Q148K; format: biochemical, HIV-1 subtype B strain HXB-2
T3 construct: The viral enzyme integrase (IN), which catalyzes the integration; His6 (N); made in house; host or cells: Escherichia coli Rosetta (DE3), pET-15b

INA G140S = INA G140S (Human immunodeficiency virus type 1 group M subtype A, UniProt P24740, G1280S/S1259P); format: biochemical, HIV-1 subtype A strain FSU-A
INA G118R = INA G118R (Human immunodeficiency virus type 1 group M subtype A, UniProt P24740, G1258R/S1259P); format: biochemical, HIV-1 subtype A strain FSU-A
INA Q148K = INA Q148K (Human immunodeficiency virus type 1 group M subtype A, UniProt P24740, Q1288K/S1259P); format: biochemical, HIV-1 subtype A strain FSU-A
[4] = target: T4, INB (integrase of HIV-1 subtype B strain HXB-2), wild type (Human immunodeficiency virus type 1 group M subtype B, UniProt P04585); format: biochemical
T4 construct: The viral enzyme integrase (IN), which catalyzes the integration; His6 (N); made in house; host or cells: Escherichia coli Rosetta (DE3), pET-15b

INB G140S = target: T5, INB G140S (Human immunodeficiency virus type 1 group M subtype B, UniProt P04585, G1287S); assay: Inhibition of homologous strand transfer reaction, INB G140S; format: biochemical, HIV-1 subtype B strain HXB-2
T5 construct: The viral enzyme integrase (IN), which catalyzes the integration; His6 (N); made in house; host or cells: Escherichia coli Rosetta (DE3), pET-15b

INB G118R = target: T6, INB G118R (Human immunodeficiency virus type 1 group M subtype B, UniProt P04585, G1265R); assay: Inhibition of homologous strand transfer reaction, INB G118R; format: biochemical, HIV-1 subtype B strain HXB-2
T6 construct: The viral enzyme integrase (IN), which catalyzes the integration; His6 (N); made in house; host or cells: Escherichia coli Rosetta (DE3), pET-15b

INB E138K/Q148K = target: T7, INB E138K/Q148K (Human immunodeficiency virus type 1 group M subtype B, UniProt P04585, E1285K/Q1295K); assay: Inhibition of homologous strand transfer reaction, INB E138K/Q148K; format: biochemical, HIV-1 subtype B strain HXB-2
T7 construct: The viral enzyme integrase (IN), which catalyzes the integration; His6 (N); made in house; host or cells: Escherichia coli Rosetta (DE3), pET-15b

INA E138K/Q148K = INA E138K/Q148K (Human immunodeficiency virus type 1 group M subtype A, UniProt P24740, E1278K/Q1288K/S1259P); format: biochemical, HIV-1 subtype A strain FSU-A
INA G140S/Q148K = INA G140S/Q148K (Human immunodeficiency virus type 1 group M subtype A, UniProt P24740, G1280S/Q1288K/S1259P); format: biochemical, HIV-1 subtype A strain FSU-A
INB G140S/Q148K = target: T8, INB G140S/Q148K (Human immunodeficiency virus type 1 group M subtype B, UniProt P04585, G1287S/Q1295K); assay: Inhibition of homologous strand transfer reaction, INB G140S/Q148K; format: biochemical, HIV-1 subtype B strain HXB-2
T8 construct: The viral enzyme integrase (IN), which catalyzes the integration; His6 (N); made in house; host or cells: Escherichia coli Rosetta (DE3), pET-15b

[5] = homologous strand transfer, 2 h, 100 nM IN, read-out: Inhibitory activity, IC50

## C[C@@H]1CCO[C@H]2Cn3cc(C(=O)NCc4ccc(F)cc4F)c(=O)c(O)c3C(=O)N12 [DTG, dolutegravir]
[1]
  FC (resistance): > 100
[2]
  FC (resistance): 10

## CN(C)S(=O)(=O)c1cc(O)c(O)c2c1CN(Cc1ccc(F)c(Cl)c1)C2=O [XZ-259]
[3]
  ratio of IC50 for mutants over wt (FC): 1
[3]; [5]
  IC50: 40 ± 15 nM
INB G118R/E138K
  ratio of IC50 for mutants over wt (FC): 1.2
INB G118R/E138K; [5]
  IC50: 80 ± 15 nM
INB
  IC50: 77 nM
INB E138K
  ratio of IC50 for mutants over wt (FC): 1
INB E138K; [5]
  IC50: 70 ± 10 nM
INA E138K
  ratio of IC50 for mutants over wt (FC): 1.25
INA E138K; [5]
  IC50: 50 ± 15 nM
INA G118R/E138K
  ratio of IC50 for mutants over wt (FC): 0.75
INA G118R/E138K; [5]
  IC50: 30 ± 10 nM
INB Q148K
  ratio of IC50 for mutants over wt (FC): 9.2
INB Q148K; [5]
  IC50: 600 ± 100 nM
INA G140S
  ratio of IC50 for mutants over wt (FC): 3.8
INA G140S; [5]
  IC50: 150 ± 50 nM
INA G118R
  ratio of IC50 for mutants over wt (FC): 1
INA G118R; [5]
  IC50: 40 ± 10 nM
INA Q148K
  ratio of IC50 for mutants over wt (FC): 8.8
INA Q148K; [5]
  IC50: 350 ± 100 nM
[4]
  ratio of IC50 for mutants over wt (FC): 1
[4]; [5]
  IC50: 65 ± 10 nM
INB G140S
  ratio of IC50 for mutants over wt (FC): 2.3
INB G140S; [5]
  IC50: 150 ± 50 nM
INB G118R
  ratio of IC50 for mutants over wt (FC): 1.2
INB G118R; [5]
  IC50: 80 ± 20 nM
INB E138K/Q148K
  ratio of IC50 for mutants over wt (FC): 7.7
INB E138K/Q148K; [5]
  IC50: 500 ± 200 nM
INA E138K/Q148K
  ratio of IC50 for mutants over wt (FC): 5
INA E138K/Q148K; [5]
  IC50: 200 ± 50 nM
INA G140S/Q148K
  ratio of IC50 for mutants over wt (FC): 15
INA G140S/Q148K; [5]
  IC50: 600 ± 150 nM
INB G140S/Q148K
  ratio of IC50 for mutants over wt (FC): 13
INB G140S/Q148K; [5]
  IC50: 850 ± 100 nM

From PMC4410398, “Influence of Drug Resistance Mutations on the Activity of HIV-1 Subtypes A and B Integrases: a Comparative Study” (Acta Naturae, 2015)
